Measurements as given in US10239889B1, “Pentacyclic compound” (Eisai R&D Management Co., Ltd., priority 2017, dated 2019).

Assays:
[1] = tested on: human tau P301S transgenic mice; assay: Evaluation in human tau P301S transgenic mouse: ChAT positive cells in the medial septal area; assay type: in vivo; settings: mean±SEM
Text: Evaluation in Human Tau P301S Transgenic Mouse
(§1) (1) Compound Administration
In this study, the test compounds were orally administered to human tau P301S transgenic mice once a day for three months from four-month-old to seven-month-old. The vehicle used was 0.01 mol/L hydrochloric acid.
At the initial day of the administration (four-month-old) and at the next day of the final administration, mice of vehicle administration group and test compound administration group were anesthetized under pentobarbital (50 mg/kg, i.p.) and perfused with PBS. After the perfusion, the forebrain including the medial septal area was collected and fixed with 4% paraformaldehyde.
(3) Preparation of Brain Coronal Frozen Section
The collected forebrain including the medial septal area was immersed and shaken overnight in 4% paraformaldehyde. […]
The prepared brain coronal frozen sections were stained with DAB (DAB PEROXIDASE SUBSTRATE KIT (Vector, SK-4100)) using a ChAT antibody (Santa Cruz, S.C.-20672) as a primary antibody. The section image including the medial septal area as shown in “The mouse Brain in stereotaxic coordinates” (COMPACT THIRD EDITION, Keith B.J. Franklin & George Paxinos) was taken by an all-in-one fluorescence microscope (KEYENCE, BZ-X710) and ChAT positive cells around the major axis of the medial septal area were counted by BZ analysis software (KEYENCE). […] Data are expressed as the mean±SEM. […]

[2] = tested on: Choline Acetyltransferase (ChAT) mRNA; assay: Measurement of choline acetyltransferase (ChAT) mRNA expression levels in the rat septal area; assay type: in vivo; settings: SD rat medial septum, oral 10 mg/kg, 24 hours after administration, qPCR
Protocol: Measurement of Choline Acetyltransferase (ChAT) mRNA Expression Levels in the Rat Septal Area
as §1
In this study, SD male rats (Charles River Laboratories Japan, Inc.) with a body weight of about 250 to 350 g were used. The compound was dissolved in 0.01 mol/L hydrochloric acid, and orally administered.
At 24 hours after the administration of the compound, the whole brain tissue was collected under pentobarbital anesthesia. The medial septum was isolated from whole brain on ice and frozen with liquid nitrogen, and then stored at −80° C.
(3) Measurement of ChAT mRNA Expression Levels
For RNA purification, RNeasy Plus Mini Kit (#74136: QIAGEN) was used in this study. RNA purification was performed by the method described in the kit. After RNA purification, the total RNA concentration was measured by using QIAxpert Instrument (QIAGEN). cDNA was synthesized using SuperScript® VILO™ cDNA Synthesis Kit (#11754: Thermo Fisher Scientific). The synthesis of cDNA was performed by the method described in the kit. The synthesized cDNA was diluted 4 times with RNase free water, and the diluted cDNA solution was used as a sample. Taqman Universal PCR Master Mix (#4304437: Thermo Fisher Scientific), Taqman® Gene Expression Assays, INVENTORIED (#4331182: Thermo Fisher Scientific), RNase free water, and the cDNA solution were mixed in amounts of 10 μl, 1 μl, 4 μl, and 5 μl, respectively, and the resulting mixture was used as a measurement sample solution. Quantitative polymerase chain reaction (qPCR) was conducted using ABI PRISM® 7900HT (Thermo Fisher Scientific) by a fluorescence probe method. Analysis was performed by SDS 2.4 (Thermo Fisher Scientific). The results were calculated by the percentage of the amount of ChAT mRNA expression levels in the compound administration group increased from the amount of ChAT mRNA expression levels in the vehicle administration group.

**Q.** Which results are given for `CN1CCc2c(sc3nc4n(c(=O)c23)-c2ccc(F)cc2C(=O)N(C)C4)C1` [Example 1]?
**A.** Ratio (%) of number of ChAT positive cells compared to that in the initial administration ([1]; oral 10 mg/kg once a day for three months (4 to 7 months old)): 105.0 ± 4.0^# %; Amount (%) increased from the amount of ChAT mRNA expression levels in the vehicle administration group [2]: 73.3%

**Q.** For `CN1CCc2c(sc3nc4n(c(=O)c23)-c2sccc2C(=O)N(C)C4)C1` [Example 3, 5,10-dimethyl-5,6,9,10,11,12-hexahydropyrido[4″,3″:4′,5′]thieno[2′,3′:4,5]pyrimido[1,2-a]thieno[3,2-f][1,4]diazepine-4,13-dione], which “Ratio (%) of number of ChAT positive cells compared to that in the initial administration” value ([1]; oral 5 mg/kg once a day for three months (4 to 7 months old)) is on record?
**A.** 105.3 ± 4.3^# %

**Q.** And the “Amount (%) increased from the amount of ChAT mRNA expression levels in the vehicle administration group” value [2]?
**A.** 56.4%
